# From patent US20070015733A1, “Aryl Phosphate Derivatives of d4T having Activity Against Resistant HIV Strains” (Parker Hughes Institute, priority 1998, published 2007)
# Read-outs that look alike come from different tables or passages of the source.
# Tests used:
# Assay type in all cases: cell-based
# [1] = test system: zidovudine-resistant primary clinical HIV-1 isolates; assay: p24 drug susceptibility assay, NRTI-/zidovudine-resistant primary clinical HIV-1 isolates in PBMC; details: Human immunodeficiency virus 1, PBMC
# Experimental: Viruses. […] The HIV-1 strains HTLVIIIB (wildtype RT, NRTI-sensitive, NNRTI-sensitive), A17 (Y181 C mutant, NNRTI-resistant), A17-variant (Y181C+K103N mutant, NNRTI-resistant), and RT-MDR (M41 L, V106N, T215Y; NRTI-resistant, NNRTI-resistant) were also obtained from the AIDS Research and Reference Reagent Program, NIAID.
# Antiviral susceptibility assays. Phenotypic drug susceptibility studies of HIV-1 isolates and strains were performed by measuring the production of the p24 gag protein in peripheral blood mononuclear cells (PBMC) from seronegative healthy volunteers in the presence of increasing concentrations of the anti-HIV agent using the quantitative Coulter HIV-1 p24 antigen ezyme immunoassay (EIA) and HIV-1 p24 Antigen Kinetic Standard (Beckman Coulter), as previously described (Uckun, 1998, Antimicrobial Agents and Chemotherapy 37(4): 835-38). Informed consent was obtained from the blood donors according to DHHS guidelines using consent forms approved by the Institutional Review Board. In brief, PBMC were cultured for 72 h in RPMI 1640 medium (Gibco) supplemented with 20% (vol/vol) heat-inactivated fetal bovine serum, 5% human interleukin-2 (Zeptometrix), 2 mM L-glutamine, 25 mM HEPES, 2 g/L NaHCO3, 100 U/ml penicillin/streptomycin (Gibco), 50 μg/ml gentamicin (Gibco), and 5 μg/ml phytohemagglutinin-P (PHA-P) (Sigma) for 24-72 hours prior to exposure to HIV at a multiplicity of infection of 0.001-0.1 during a 1-h adsorbtion period at 37±1° C. in a humidified 5-7% CO2 atmosphere. Subsequently, cells were cultured in 96-well microtiter plates (100 μl/well; 2×10^6 cells/ml, triplicate wells) in the presence of the anti-HIV agents at 6-7 different concentrations ranging from 0.0001 μM to 100 μM, and 25 μL aliquots of culture supernatants were removed from the wells on day 6 after infection for p24 EIA, as previously described (Uckun, 1998, Antimicrobial Agents and Chemotherapy, 37(4):835-38). Controls included uninfected and untreated cells (background control) and infected but untreated (virus control) cells. The p24 EIA utilizes a murine monoclonal antibody to HIV core protein used to coat microwell strips to which the antigen present in the test culture supernatant samples binds. Percent inhibition of viral replication was calculated by comparing the p24 values from the test substance-treated infected cells with p24 values from untreated infected cells (i.e., virus controls). The IC50 values were determined using the Statview statistics program (SAS Institute, Inc.). In parallel, the effects of various treatments on cell viability were also examined as previously described (Uckun, 1998, Antimicrobial Agents and Chemotherapy, 42:383-388). In brief, noninfected PBMC were treated with each compound for 5 days under identical experimental conditions. A microculture tetrazolium assay (MTA) was performed to quantitate cellular proliferation (Uckun, 1998, Antimicrobial Agents and Chemotherapy, 42:383-388).
# Phenotypic drug susceptibility studies of HIV-1 isolates and strains were performed by measuring the production of the p24 gag protein in peripheral blood mononuclear cells (PBMC) from seronegative healthy volunteers in the presence of increasing concentrations of the anti-HIV agent using the quantitative Coulter HIV-1 p24 antigen enzyme immunoassay (EIA) and HIV-1 p24 Antigen Kinetic Standard (Beckman Coulter), as previously described. StatView was used in the calculation of the IC50 values from each set of triplicate wells using the linearized form of an exponential equation (lnY=lnb0+b1X; where Y=% inhibition, X=drug concentration). The inhibition constants were log10 transformed to homogenize the variances within each group. […] P-values below 0.05 were deemed significant (JMP Software, SAS).
# HIV-2 (Strain: CBL-20) = assay: Inhibition of HIV-2 replication in PBMNC (RT activity); details: Human immunodeficiency virus 2, read-out: HIV-2 IC50 [RT]
# Experimental: (P-AZT) and with AZT. The incubation and analysis methods used were as described above for Example 3.
# (§1) Cellular Assays of Anti-HIV Activity and Cytotoxicity. […] Percent viral inhibition was calculated by comparing the RT activity values from the test substance-treated infected cells with RT values from untreated infected cells (i.e., virus controls).
# [2] = test system: AZT- and NNI-resistant HIV-1 (strain: RTMDR-1); assay: Inhibition of RTMDR-1 (HIV-MDR) replication in PBMNC (RT activity)
# Experimental: as §1
compound,measurement,setting,value
"COC(=O)C(C)NP(=O)(OC[C@@H]1C=C[C@H](n2cc(C)c(=O)[nH]c2=O)O1)Oc1ccc(Br)cc1 (stereo partly shown) [Compound 1c, d4T-5′-[p-bromo-phenylmethoxyalaninyl phosphate]]",IC50,"[1]; isolate 92BR019 (D67N, L214F, T215D, K219Q), PBMC",2 nM
same,IC50,"[1]; isolate BR/92/019, PBMC, p24",2 nM
same,IC50,"[1]; isolate C140 (M41L, M184V, T215Y), PBMC",2.5 nM
same,IC50,"[1]; isolate C140, PBMC, p24",2.5 nM
same,IC50,"[1]; isolate C467-4 (K20R, D67N, K70R, Y188L, T215F, K219Q), PBMC",42 nM
same,IC50,"[1]; isolate C467-4, PBMC, p24",42 nM
same,IC50,"[1]; isolate G190-6, PBMC, p24",2.8 nM
same,IC50,"[1]; isolate G691-2 (mutations N.D.), PBMC",5 nM
same,IC50,"[1]; isolate G704-2 (M41L, D67N, K70R, L210W, T215Y), PBMC",3.2 nM
same,IC50,"[1]; isolate G704-2, PBMC, p24",3.2 nM
same,IC50,"[1]; isolate G780-1 (M41L, D67N, K70R, T215F, K219Q), PBMC",35 nM
same,IC50,"[1]; isolate G780-1, PBMC, p24",35 nM
same,IC50,"[1]; isolate G890-1 (K20R, M41L, D67N, T69N, K70R, L210W, T215Y), PBMC",6 nM
same,IC50,"[1]; isolate G890-1, PBMC, p24",6 nM
same,IC50,"[1]; isolate G910-6 (M41L, D67N, K70R, T215Y, K219Q), PBMC",2.8 nM
same,IC50,"[1]; isolate P798-1 (M41L, T215Y), PBMC",7.5 nM
same,IC50,"[1]; isolate P798-1, PBMC, p24",7.5 nM
same,IC50,"[1]; isolate Q252-2 (M41L, L210W, T215Y), PBMC",1.9 nM
same,IC50,"[1]; isolate Q252-2, PBMC, p24",1.9 nM
same,IC50,"[1]; isolate R416-10 (M41L, T215Y), PBMC",0.2 nM
same,IC50,"[1]; isolate R416-10, PBMC, p24",0.2 nM
same,IC50,"[1]; isolate S159-2 (M41L, K103N, T215Y), PBMC",0.78 nM
same,IC50,"[1]; isolate S159-2, PBMC, p24",0.8 nM
same,IC50,"[1]; isolate S762-4 (M41L, T215Y), PBMC",8 nM
same,IC50,"[1]; isolate S762-4, PBMC, p24",8 nM
same,IC50,"[1]; isolate T156-3 (M41L, E44D, D67N, T69D, L210W, T215Y), PBMC",3.3 nM
same,IC50,"[1]; isolate T156-3, PBMC, p24",3.3 nM
same,IC50,"[1]; isolate X165-8 (D67N, T69N, K70R, K103N, Y181C, T215F, K219E), PBMC",13 nM
same,IC50,"[1]; isolate X165-8, PBMC, p24",13 nM
same,IC50,"[1]; isolate X165-9 (K20R, D67N, K103N, T215Y), PBMC",2 nM
same,IC50,"[1]; isolate X165-9, PBMC, p24",2 nM
same,IC50,"[1]; isolate X267-1 (L74V), PBMC, p24",0.2 nM
same,IC50,"[1]; isolate X267-1 (M41L, L74V, L210W, T215Y), PBMC",0.15 nM
same,IC50,"[1]; isolate X267-2 (M41L, T215Y), PBMC",0.18 nM
same,IC50,"[1]; isolate X267-2, PBMC, p24",0.2 nM
same,IC50,"[1]; isolate X267-5 (M41L, F116S, T215Y), PBMC",30 nM
same,IC50,"[1]; isolate X267-5, PBMC, p24",30 nM
same,IC50,"[1]; isolate Y270-7 (M41W, Y188L, T215N), PBMC",9 nM
same,IC50,"[1]; isolate Y270-7, PBMC, p24",9 nM
same,IC50,"[1]; primary isolate C467-4 (Y188L), Table 14",42 nM
same,IC50,"[1]; primary isolate S159-2 (K103N), Table 14",< 0.1 nM
same,IC50,"[1]; primary isolate X165-8 (K103N, Y181C), Table 14",13 nM
same,IC50,"[1]; primary isolate X165-9 (K103N), Table 14",2 nM
same,IC50,"[1]; primary isolate Y270-7 (Y188L), Table 14",9 nM
same,IC50,"[1]; read-out: IC50 (nM), Mean ± SE, All (n = 25) NRTI-resistant HIV-1 isolates, p24",13.4 ± 3.2 nM
same,IC50,"[1]; read-out: IC50 (nM), Mean ± SE, Group A (n = 19) NRTI-resistant clinical isolates",8.9 ± 2.9 nM
same,IC50,"[1]; read-out: IC50 (nM), median, All (n = 25)",6 nM
same,IC50,"[1]; read-out: IC50 (nM), median, Group A (n = 19)",3.2 nM
same,IC50,"[1]; read-out: IC50 (nM), range, All (n = 25)",0.2 to 57.9 nM
same,IC50,"[1]; read-out: IC50 (nM), range, Group A (n = 19)",0.2 to 42 nM
same,IC50,"[1]; read-out: IC50, μM, Mean ± SE, mean over 20 zidovudine-resistant primary clinical isolates",8.7 ± 2.7 nM
same,IC50,"[1]; read-out: IC50, μM, Mean ± SE, mean over the NNRTI-resistant primary isolates of Table 14",11.2 ± 6.5 nM
same,IC50,"[1]; read-out: IC50 range, range over 20 zidovudine-resistant primary clinical isolates",1 to 42 nM
same,IC50,"[1]; read-out: average IC50 value, mean over 20 zidovudine-resistant primary clinical isolates",8.7 ± 2.8 nM
same,IC50,"[1]; read-out: average IC50 value, mean over primary clinical isolates with NNRTI binding pocket mutations",11.2 ± 6.5 nM
same,IC50,"[1]; read-out: mean IC50 value, NRTI-resistant isolates with 5 thymidine analog mutations (Group 1 in Table 19)",10.7 ± 5.1 nM
same,IC50,"[1]; read-out: mean IC50 value, isolates with M184V plus multiple thymidine analog mutations (Group 2 in Table 19)",17.2 ± 13 nM
same,IC50,HIV-2 (Strain: CBL-20),400 nM
same,IC50,"[2]; Human immunodeficiency virus 1, read-out: HIV-MDR IC50 [RT]",20 nM
same,IC50,"[2]; Human immunodeficiency virus 1, read-out: IC50 against HIV-MDR",20 nM
same,IC50,"[2]; Human immunodeficiency virus 1, read-out: RTMDR-1 IC50 [RT]",20 nM
